This is an account of results in patent publication US20150283093A1, “NANOENCAPSULATION OF CURCUMINOID METABOLITES - PROCESS, COMPOSITION AND APPLICATIONS THEREOF” (priority 2014, published 2015).

A short description of this assay: Superoxide radical scavenging activity (alkaline DMSO / NBT method). As to the method: The scavenging activity towards the superoxide radical (O2^−) was measured as the inhibition of superoxide radical (O2^−) generation. The method was performed by using alkaline DMSO method. Potassium superoxide and dry DMSO were allowed to stand in contact for 24 h and the solution was filtered immediately before use. […] Ascorbic acid was used as standard. The experiment was repeated in triplicate and the percentage scavenging was calculated by using the formula:
Inhibition (%)=[(Control−Test)/Control]×100

Take `Cc1c(C)c2c(c(C)c1O)CCC(C)(C(=O)O)O2` (centres unmarked) [TROLOX]: the “scavenging of superoxide radical (O2−), concentration dependence” value is “concentration dependant scavenging”. Moreover, under “at 100 μM concentration”, the “scavenging potential of superoxide radical (O2−)” value was found to be 47.80%.
